Five cell lines from the supplement of paper PMC10307832 can be followed below.

Common to all, as to assay: relative viability (nuclei count vs DMSO), 5 days (fraction); higher = more cells survive
Compound in assay [1]: C[C@@H](N)c1ccc(C(=O)Nc2ccnc3[nH]ccc23)cc1 + COc1cc2c(Oc3ccc(NC(=O)C4(C(=O)Nc5ccc(F)cc5)CC4)cc3F)ccnc2cc1OCCCN1CCOCC1 [Foretinib] (partner 0.25 µM)
The procedure, abridged:
(§1)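 After 5 days of treatment, lung cancer cells in 1536-well plates were fixed and stained in a single step (final 0.05% Triton X-100, 1% formaldehyde, 1 ug/ml Hoechst) and their nuclei counted on 4× images. Treatment had been applied by pin tool the day after seeding as one drug alone or as a fixed anchor-drug dose with five library-drug doses (not always all listed) in √10 steps. Relative viability is the nuclei count of treated wells divided by that of vehicle wells, and values are medians of duplicate plates.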

Compound in assay [2]: O[C@H]1CC[C@H](Nc2ncc3nc(Nc4c(F)cc(F)cc4F)n([C@H]4CCOC4)c3n2)CC1 [Tanzisertib] + Cc1nc(NC(=O)N2CCC[C@H]2C(N)=O)sc1-c1ccnc(C(C)(C)C(F)(F)F)c1 [Alpelisib] (partner 2 µM)
In a few lines: as §1

Compound in assay [3]: C[C@@H](N)c1ccc(C(=O)Nc2ccnc3[nH]ccc23)cc1 + CS(=O)(=O)N1CCN(Cc2cc3nc(-c4cccc5[nH]ncc45)nc(N4CCOCC4)c3s2)CC1 [Pictilisib] (partner 1 µM)
The procedure, abridged:
as §1

Compound in assay [4]: C1CNCCC1C2=CC(=NN2)C3=CC=NC=C3 + Nc1nc2[nH]cc(CCc3ccc(C(=O)N[C@@H](CCC(=O)O)C(=O)O)cc3)c2c(=O)[nH]1 [Pemetrexed] (partner 0.2 µM)
The procedure, abridged:
as §1

For the cell line PC-14, the relative viability in assay [1] (first compound 0.04 µM) stood at 0.753; in assay [1] (first compound 0.1265 µM), 0.943; in assay [1] (first compound 0.4 µM), 0.95; in assay [1] (first compound 1.265 µM), 0.877; in assay [1] (first compound 4 µM) it was 0.832; in assay [2] (first compound 0.08 µM), 0.942. Besides, the relative viability was determined as 0.947 in assay [2] (first compound 0.253 µM); 0.943 in assay [2] (first compound 0.8 µM); 0.873 in assay [2] (first compound 2.53 µM); 0.57 in assay [2] (first compound 8 µM); 0.679 in assay [3] (first compound 0.04 µM); 0.699 in assay [3] (first compound 0.1265 µM). Besides, the relative viability in assay [3] (first compound 0.4 µM) stood at 0.684; in assay [3] (first compound 1.265 µM), 0.665; in assay [3] (first compound 4 µM), 0.612; in assay [4] (first compound 0.08 µM), 0.107; in assay [4] (first compound 0.8 µM), 0.134; in assay [4] (first compound 2.53 µM), 0.138. In addition, the relative viability in assay [4] (first compound 8 µM) stood at 0.131.
Take RERF-LC-KJ: the relative viability in assay [1] (first compound 0.04 µM) was 0.899; in assay [1] (first compound 0.1265 µM), 0.811; in assay [1] (first compound 0.4 µM), 0.9; in assay [1] (first compound 1.265 µM) it was 0.899; in assay [1] (first compound 4 µM), 0.909; in assay [2] (first compound 0.08 µM), 0.819. Also, the relative viability in assay [2] (first compound 0.253 µM) worked out at 0.754; in assay [2] (first compound 0.8 µM), 0.918; in assay [2] (first compound 2.53 µM), 0.777; in assay [2] (first compound 8 µM), 0.719; in assay [3] (first compound 0.04 µM), 0.575; in assay [3] (first compound 0.1265 µM), 0.541. Further, the relative viability came out at 0.558 in assay [3] (first compound 0.4 µM); 0.585 in assay [3] (first compound 1.265 µM); 0.492 in assay [3] (first compound 4 µM); 0.464 in assay [4] (first compound 0.08 µM); 0.493 in assay [4] (first compound 0.8 µM); 0.516 in assay [4] (first compound 2.53 µM). Moreover, in assay [4] (first compound 8 µM), the relative viability came to 0.463.
Regarding SK-LU-1, the relative viability was 0.96 in assay [1] (first compound 0.04 µM); 0.804 in assay [1] (first compound 0.1265 µM); 0.82 in assay [1] (first compound 0.4 µM); 0.732 in assay [1] (first compound 1.265 µM); 0.573 in assay [1] (first compound 4 µM); 1.15 in assay [2] (first compound 0.08 µM). Further, the relative viability worked out at 0.976 in assay [2] (first compound 0.253 µM); 1.12 in assay [2] (first compound 0.8 µM); 1.23 in assay [2] (first compound 2.53 µM); 0.912 in assay [2] (first compound 8 µM); 0.589 in assay [3] (first compound 0.04 µM); 0.621 in assay [3] (first compound 0.1265 µM). Besides, the relative viability came out at 0.549 in assay [3] (first compound 0.4 µM); 0.608 in assay [3] (first compound 1.265 µM); 0.544 in assay [3] (first compound 4 µM); 0.955 in assay [4] (first compound 0.08 µM); 1.04 in assay [4] (first compound 0.8 µM); 1.04 in assay [4] (first compound 2.53 µM). Besides, the relative viability in assay [4] (first compound 8 µM) is 0.976.
In the case of SK-MES-1, the relative viability in assay [1] (first compound 0.04 µM) turned out to be 0.849; in assay [1] (first compound 0.1265 µM), 1.07; in assay [1] (first compound 0.4 µM), 0.847; in assay [1] (first compound 1.265 µM), 0.785; in assay [1] (first compound 4 µM), 0.78; in assay [2] (first compound 0.08 µM), 0.922. Moreover, the relative viability is 0.904 in assay [2] (first compound 0.253 µM); 0.951 in assay [2] (first compound 0.8 µM); 0.921 in assay [2] (first compound 2.53 µM); 0.856 in assay [2] (first compound 8 µM); 0.375 in assay [3] (first compound 0.04 µM); 0.39 in assay [3] (first compound 0.1265 µM). Further, the relative viability was found to be 0.359 in assay [3] (first compound 0.4 µM); 0.395 in assay [3] (first compound 1.265 µM); 0.404 in assay [3] (first compound 4 µM); 0.985 in assay [4] (first compound 0.08 µM); 0.9 in assay [4] (first compound 0.8 µM); 0.989 in assay [4] (first compound 2.53 µM). Moreover, the relative viability in assay [4] (first compound 8 µM) was found to be 0.94.
Take SW 1573: the relative viability is 1.06 in assay [1] (first compound 0.04 µM); 0.964 in assay [1] (first compound 0.1265 µM); 1.19 in assay [1] (first compound 0.4 µM); 0.93 in assay [1] (first compound 1.265 µM); 0.849 in assay [1] (first compound 4 µM); 0.823 in assay [2] (first compound 0.08 µM). The relative viability was 0.656 in assay [2] (first compound 0.253 µM); 0.735 in assay [2] (first compound 0.8 µM); 0.81 in assay [2] (first compound 2.53 µM); 0.578 in assay [2] (first compound 8 µM); 0.467 in assay [3] (first compound 0.04 µM); 0.56 in assay [3] (first compound 0.1265 µM). Besides, the relative viability in assay [3] (first compound 0.4 µM) was 0.543; in assay [3] (first compound 1.265 µM), 0.539; in assay [3] (first compound 4 µM) it was 0.43; in assay [4] (first compound 0.8 µM) it was 0.881; in assay [4] (first compound 2.53 µM), 0.912; in assay [4] (first compound 8 µM), 0.992.
